# Square brackets hold non-standard residues; d marks the D form. Peptide text beside a SMILES is read from it. hArg = N=C(N)NCCCC[C@H](N)C(=O)O; Aib = CC(C)(N)C(=O)O
# Molecular target: T1, human P1R (Homo sapiens, UniProt Q03431)
# T1 construct: expressed in transfected cells; host or cells: HKRK-B28 (porcine kidney LLC-PK1, stably transfected)
# T1 sequence (Q03431 27-593): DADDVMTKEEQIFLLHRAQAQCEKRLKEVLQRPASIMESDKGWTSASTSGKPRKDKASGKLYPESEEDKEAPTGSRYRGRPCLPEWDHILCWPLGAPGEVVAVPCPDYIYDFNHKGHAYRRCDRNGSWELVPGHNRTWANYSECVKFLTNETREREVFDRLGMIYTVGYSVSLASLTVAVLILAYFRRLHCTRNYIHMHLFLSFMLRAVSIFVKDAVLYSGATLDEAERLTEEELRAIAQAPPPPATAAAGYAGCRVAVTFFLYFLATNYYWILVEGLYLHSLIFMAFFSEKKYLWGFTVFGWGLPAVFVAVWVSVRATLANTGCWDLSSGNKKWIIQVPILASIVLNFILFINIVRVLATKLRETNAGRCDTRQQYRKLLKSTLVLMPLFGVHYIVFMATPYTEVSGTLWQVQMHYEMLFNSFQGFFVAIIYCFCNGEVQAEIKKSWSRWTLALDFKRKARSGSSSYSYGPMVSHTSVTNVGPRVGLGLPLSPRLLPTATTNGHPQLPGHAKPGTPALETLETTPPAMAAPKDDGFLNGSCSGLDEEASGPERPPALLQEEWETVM
# Test: Competition binding in HKRK-B28 cells
# Conditions: HKRK-B28 cells; for IC50 / Binding IC50: tracer 125I-[M]PTH(1-21)amide, 4 h at 4° C., N.B. = no binding detected at 10 μm peptide
# Protocol: Cell Culture. The cell line HKRK-B28 (Takasu, H., et al., J. Bone Miner. Res. 14:11-20 (1999)) was derived from the porcine kidney cell line, LLC-PK1 by stable transfection with plasmid DNA encoding the human P1R and expresses ˜280,000 receptors per cell. These cells, as well as COS-7 cells and SaOS-2-B10 cells, were cultured at […] in T-75 flasks ([…]) in Dulbecco's modified Eagle's medium (DMEM) supplemented with fetal bovine serum (10%), penicillin G (20 units/ml), streptomycin sulfate (20 μg/ml) and amphotericin B (0.05 μg/ml) in a humidified atmosphere containing 5% CO2. Stock solutions of EGTA/trypsin and antibiotics were from GIBCO; fetal bovine serum was from Hyclone Laboratories (Logan, Utah). COS-7 cells sub-cultured in 24-well plates were transfected with plasmid DNA (200 ng per well) encoding the wild-type human P1R or truncated human P1R deleted for residues (24-181) (Shimizu, M., et al., J. Biol. Chem. 275:21836-21843 (2000)) that was purified by cesium chloride/ethidium bromide density gradient centrifugation, and FuGENE 6 transfection reagent (Roche Indianapolis Ind.) according to the manufacturer's recommended procedure. All cells, in 24-well plates, were treated with fresh media and shifted to 33° C. for 12 to 24 h prior to assay.
# Competition Binding. Binding reactions were performed with HKRK-B28 cells or in COS-7 cells in 24-well plates. The cells were rinsed with 0.5 mL of binding buffer, and then treated successively with 100 μL binding buffer, 100 μL of binding buffer containing various amounts of unlabeled competitor ligand, and 100 μL of binding buffer containing ca. 100,000 cpm of ^125I-[M]PTH(1-21) or ^125I-[Aib^1,3,M]PTH(1-21)} (ca. 26 fmol; final volume=300 μL). Incubations were 4 to 6 h at 4° C., at which time near equilibrium conditions were attained. Cells were then placed on ice, the binding medium was removed, and the monolayer was rinsed three times with 0.5 mL of cold binding buffer. The cells were subsequently lysed with 0.5 mL […] and counted for radioactivity. For each tracer and in each experiment, the non-specific binding was determined as the radioactivity that bound in the presence of the same unlabeled peptide at a concentration of 1 μM, and was ˜1% of total radioactivity added for each tracer. The maximum specific binding (B0) was the total radioactivity bound in the absence of competing ligand, corrected for nonspecific binding, and for each tracer, ranged from 8% to 20% of the total radioactivity added. Nonlinear regression was used to calculate binding IC50 values (see below). Scatchard transformations of homologous competition binding data derived from studies with 26 fmol of ^125I-[Aib^1,3,M]PTH(1-21) were employed for estimations of apparent equilibrium dissociation constant (kDapps) and total number of ligand binding sites (Bmax), assuming a single class of binding sites and equal affinities of the iodinated and non iodinated ligand.
# Data Calculation. Calculations were performed using Microsoft® Excel. Nonlinear regression analyses of binding and cAMP dose-response data were performed using the four-parameter equation: yp=Min+[(Max−Min)/(1+(IC50/x)^slope)]. The Excel Solver function was utilized for parameter optimization, as described previously (Carter, P. H., et al., Endocrinology 140: 4972-4981 (1999); Bowen, W. P., and Jerman, J. C., Trends in Pharmacol. Sci. 16: 413-417 (1995)). Differences between paired data sets were statistically evaluated using a one-tailed Student's t-test, assuming unequal variances for the two sets.
# The P1R-binding properties of these analogs were assayed in competition studies performed in […]. In previous studies, PTH(1-14) binding could not be detected using ^125I-PTH(1-34) and related N-terminally intact and relatively unmodified radioligands (Luck, M. D., et al., Molecular Endocrinology 13:670-680 (1999)). […]
Compound,IC50,Binding IC50,Binding IC50 (M]PTH (1-10)),fold improvement of apparent binding affinity relative to [M]PTH(1-14),"fold improvement of apparent binding affinity relative to [M]PTH(1-14) (listed as Aib-1,3)"
"CCCC[C@H](NC(=O)[C@H](CCCNC(=N)N)NC(=O)[C@H](CCC(=O)O)NC(=O)[C@@H](NC(=O)[C@H](CO)NC(=O)[C@H](C)NC(=O)[C@H](CC(C)C)NC(=O)[C@H](Cc1c[nH]cn1)NC(=O)[C@H](CCCCN)NC(=O)CNC(=O)[C@H](CC(C)C)NC(=O)[C@H](CC(N)=O)NC(=O)[C@H](Cc1c[nH]cn1)NC(=O)[C@H](CCCC)NC(=O)[C@H](CC(C)C)NC(=O)[C@H](CCC(N)=O)NC(=O)[C@@H](NC(=O)[C@H](CCC(=O)O)NC(=O)[C@H](CO)NC(=O)[C@@H](NC(=O)[C@H](C)N)C(C)C)[C@@H](C)CC)C(C)C)C(=O)N[C@@H](CCC(N)=O)C(=O)N[C@@H](Cc1c[nH]c2ccccc12)C(=O)N[C@@H](CC(C)C)C(=O)N[C@@H](CCCNC(=N)N)C(=O)N[C@@H](CCCCN)C(=O)N[C@@H](CCCCN)C(=O)N[C@@H](CC(C)C)C(=O)N[C@@H](CCC(N)=O)C(=O)N[C@@H](CC(=O)O)C(=O)N[C@H](C(=O)N[C@@H](Cc1c[nH]cn1)C(=O)N[C@@H](CC(N)=O)C(=O)N[C@@H](Cc1ccc(O)cc1)C(N)=O)C(C)C [PTH(1-34), [Nle^8,21, Tyr^34]PTH(1-34)amide, reference compound]",1.8e-08 ± 3e-09 M,,,,
"CC[C@H](C)[C@H](NC(=O)[C@H](CCC(=O)O)NC(=O)C(C)(C)NC(=O)[C@@H](NC(=O)C(C)(C)N)C(C)C)C(=O)N[C@@H](CCC(N)=O)C(=O)N[C@@H](CC(C)C)C(=O)N[C@@H](CCSC)C(=O)N[C@@H](Cc1c[nH]cn1)C(=O)N[C@@H](CCC(N)=O)C(N)=O [[Aib^1,3,M]PTH(1-10), [Aib^1,3,Gln^10]PTH(1-10)] (H-[Aib]V[Aib]EIQLMHQ-NH2)",,did not bind detachably,N.B.,,
"CC[C@H](C)[C@H](NC(=O)[C@H](CCC(=O)O)NC(=O)C(C)(C)NC(=O)[C@@H](NC(=O)C(C)(C)N)C(C)C)C(=O)N[C@@H](CCC(N)=O)C(=O)N[C@@H](CC(C)C)C(=O)N[C@@H](CCSC)C(=O)N[C@@H](Cc1c[nH]cn1)C(=O)N[C@@H](CCC(N)=O)C(=O)N[C@@H](CCCCNC(=N)N)C(N)=O [[Aib^1,3,M]PTH(1-11), AibValAibGluIleGlnLeuMetHisGlnHar] (H-[Aib]V[Aib]EIQLMHQ[hArg]-NH2)",9.7e-07 ± 3e-07 M,,,,
"CC[C@H](C)[C@H](NC(=O)[C@H](CCC(=O)O)NC(=O)C(C)(C)NC(=O)[C@@H](NC(=O)C(C)(C)N)C(C)C)C(=O)N[C@@H](CCC(N)=O)C(=O)N[C@@H](CC(C)C)C(=O)N[C@@H](CCSC)C(=O)N[C@@H](Cc1c[nH]cn1)C(=O)N[C@@H](CCC(N)=O)C(=O)N[C@@H](CCCCNC(=N)N)C(=O)N[C@@H](C)C(=O)N[C@@H](CCCCN)C(=O)N[C@@H](Cc1c[nH]c2ccccc12)C(N)=O [[Aib^1,3,M]PTH(1-14), AibValAibGluIleGlnLeuMetHisGlnHarAlaLysTrp] (H-[Aib]V[Aib]EIQLMHQ[hArg]AKW-NH2)",1.3e-07 ± 2e-08 M,,,100 fold,approximately 100 fold

# From patent US7572765B2, “Conformationally constrained parathyroid hormone (PTH) analogs” (The General Hospital Corporation, priority 2001, dated 2009)
